Molecules are shown by their SMILES. In brackets after ≈: the same amount, converted by molar mass. Several values for one entry are separate records, joined by “and”; a condition that tells them apart may be missing. Equal entries are not always repeated. Where two headings read alike, the source gives them in different places. Marks after values point to notes of the source that are not given here.

The values that follow come from article PMC4355590, “A Kinetic Study of the Main Guaco Metabolites Using Syrup Formulation and the Identification of an Alternative Route of Coumarin Metabolism in Humans” (PLoS ONE, 2015).

Series [1] can be described thus: Pharmacokinetic study: volunteers orally received 60 mL of guaco syrup spiked with 1500 mg of COU, plasma by HPLC-MS/MS. Type of series: in vivo, human. From the text:
The weight ranged from 63 to 88 kg and the height from 1.65 to 1.80 m. The volunteers were submitted to the medical consultations and clinical analyses before their participation in the study. Only healthy volunteers (normal values of blood pressure and renal, hepatic, biochemical and hematological parameters) were eligible to participate in the study. […] The volunteers were informed about all the procedures and possible risks related to the study. All the volunteers provided written informed consent to participate in the study. […] All the volunteers fasted for 8 h prior to the administration of guaco syrup and blood collection. […] The anticoagulant used was tetrasodium edetate. […] The pharmacokinetic analysis was performed using a non-compartmental model, considering an extravascular administration route and using WinNonlin Professional software, version 5.3. The relationships among the areas under the curves (r areas = AUC0-t/AUC0-inf), were used to confirm the suitability of the experimental design. […] All the frozen (-40°C) human plasma samples from the volunteers were thawed at room temperature, and a 200 μL aliquot was transferred into 2 mL plastic centrifuge tubes. The analytes were extracted as follows. The 200 μL aliquots of thawed samples were spiked with 50 μL of acetonitrile/water (70:30 v/v) and 50 μL of the working IS solution to obtain a final concentration of 500 ng/mL of 6-methylcoumarin. The spiked samples were vortexed for 2 min, and a 1.5 mL aliquot of TBME was added to the tube. The samples were vortexed for 2 min and then submitted to centrifugation for 10 min (14000 rpm, -5°C). A 1.2 mL aliquot of each sample supernatant was transferred to a new plastic centrifuge tube, and TBME was evaporated at 40°C in a sample concentrator (CentriVap Labconco, Kansas City, EUA). The remaining samples were resuspended in 200 μL of acetonitrile/water (70:30 v/v) using a vortex mixer for 3 min. The 200 μL aliquots of the thawed samples were spiked with 50 μL of acetonitrile/water (70:30 v/v) and 50 μL of the working IS solution to obtain a final concentration of 500 ng/mL of prednisone (IS) and 1000 ng/mL of isoferulic acid (IS). The spiked samples were vortexed for 2 min, and a 1.5 mL of acetonitrile was added to the tube. The samples were vortexed for 2 min and then were submitted to centrifugation for 10 min (14000 rpm, -5°C). Each sample supernatant was transferred to a new plastic centrifuge tube, and acetonitrile was evaporated in a sample concentrator (40°C). The samples were resuspended in 200 μL of acetonitrile/water (70:30 v/v) using a vortex mixer for 3 min. […] The HPLC was connected to a CTC Sample Manager (Model 2777, Waters Corporation, Milford, USA) that was operated at room temperature. Acetonitrile and methanol were used as wash solvents. The HPLC system was coupled to an Applied Biosystems MDS Sciex API 3200 Triple Quadrupole Mass Spectrometer (Toronto, Canada), equipped with a Harvard 22 Dual Model syringe pump (Harvard Apparatus, South Natick, USA) and an electrospray ionization (ESI) source. […] For the positive ion mode, the mobile phase consisted of acetonitrile/water/formic acid (70:30:0.05 v/v/v) at an elution rate of 200 μL/min in an isocratic system. For the negative ion mode, the mobile phase consisted of a gradient of water (A) and acetonitrile/water 95:5 v/v (B), both containing 1 mM ammonium formate. The flow rate was maintained at 400 μL/min, and the gradient profile was as follows: t0-1.0min: […] A = 70%; and t5.1-9.0min: A = 70%. […] The injection volume was 20 μL, and the column temperature was maintained at 25°C for positive ion mode and at 35°C for negative ion mode. Data acquisition was performed with the MS Workstation by Analyst software, version 1.4.2 (ABSciex). Quantification was performed in Multiple Reaction Monitoring (MRM) mode, maintaining the dwell time at 300 and 400 ms for the positive and negative ion modes, respectively. […]

A short description of series [2]: Second screening: 60 mL of guaco syrup spiked with 100, 500, 1000 or 1500 mg of COU. It is filed as in vivo, human. On the procedure:
All the volunteers fasted for 8 h prior to the administration of guaco syrup and blood collection. Blood samples (3.0 mL) were collected (using flexible catheter 18–20G) before the syrup administration (zero min) and at fifteen time points after the syrup administration (10, 20, 30, 45, 60, 75, 90, 120, 150, 180, 240, 360, 480, 540 and 600 min). The anticoagulant used was tetrasodium edetate. All the samples were immediately centrifuged at 4000 rpm (5.0 min, room temperature), and the plasma was aliquoted and frozen at -40°C until analysis. The pharmacokinetic analysis was performed using a non-compartmental model, considering an extravascular administration route and using WinNonlin Professional software, version 5.3. The relationships among the areas under the curves (r areas = AUC0-t/AUC0-inf), were used to confirm the suitability of the experimental design. Values greater than 0.8 indicated an appropriate experimental design.

The test system of a further series is histamine inhalation. Further details: method as in PMID 16084046. As to conditions: guinea pigs; cited from earlier work.
Another series has as its system guinea pig tracheas. More on the design: method as in PMID 16084046. As to conditions: cited from earlier work.
Details of series [3]: method as in PMID 598421. As to conditions: cited from earlier work.
In series [4] the test system is allergic airway inflammation. Further details: method as in PMID 19289114. As to conditions: mice, 60 mg/kg; cited from earlier work.
[5] abbreviates: both sexes, human, plasma, po, 1500 mg, human plasma, 60 mL guaco syrup spiked with 1500 mg coumarin, n = 5, mean ± S.D.
Where [6] appears, read: both sexes, human, plasma, po, 1500 mg, human plasma, 60 mL guaco syrup spiked with 1500 mg coumarin, n = 5, mean ± S.D., read-out: Cmax.
[7] abbreviates: both sexes, human plasma, oral, 60 mL guaco syrup spiked with 1500 mg coumarin, n = 5, mean ± S.D.
Where [8] appears, read: human plasma, oral, 60 mL guaco syrup spiked with 1500 mg coumarin, n = 5, mean ± S.D.

Consider `O=C(O)/C=C/c1ccccc1O` [OCA, o-coumaric acid], for which the half-life (as a rule, the time needed for the level to fall by half in the phase considered) in series [1] (setting [5]) is approximately 180 min. In addition, the Cmax (as a rule, the peak of the concentration-time curve) in series [1] (setting [6]) was found to be 231 ± 187 ng/mL. For the same molecule, in series [1] (setting [7]), the AUC(0-inf) (usually the area under the concentration-time curve extrapolated to infinity) is 518 ± 299 ng·h/mL; the exposure AUC(0-t) – broadly, exposure summed from dosing to a finite time, without extrapolation to infinity – was determined as 465 ± 299 ng·h/mL; the Tmax turned out to be 1.45 ± 0.84 h. In series [1] (setting [8]), the T1/2 was 3.50 ± 0.83 ^b h and the “r areas (AUC0-t/AUC0-inf)” value worked out at 0.87 ± 0.08.

With `O=c1ccc2ccccc2o1` [COU, 1,2 benzopyrone], the “time of peak absorption after syrup administration” value in series [2] (all four volunteers, 100, 500, 1000 and 1500 mg COU) was found to be 10 min. The Tmax in series [2] (both sexes, human, plasma, oral, read-out: time of peak concentration in plasma) lay within 0.75 to 2 h. The molecule further gave a concentration at 10 min in series [2] (human, plasma, oral, 100 mg dosage, 10 min after syrup administration) of 22.1 ng/mL. For the same molecule, the “AD50 (adequate dose protecting 50% of the tested animals)” value in the series with histamine inhalation is 75 mg/kg. For the same molecule, in the series with guinea pig tracheas (guinea pig tracheas pre-contracted with carbachol), the “EC50, relaxing effect” value is 33.4 µg/mL (≈ 229 µM). In addition, the “EC50, relaxing effect” value in the series on guinea pig tracheas (guinea pig tracheas pre-contracted with histamine) is 35.0 µg/mL (≈ 239 µM). Moreover, in series [1] (both sexes, human, plasma, oral, 1500 mg, Cl/f multiplied by the bioavailability 0.034 of ref 32, read-out: estimated clearance (Cl = 1148.0 x 0.034) (converted)), the clearance is 651 mL/min. Also, in series [1] (both sexes, human, plasma, oral, 1500 mg, Vd/f multiplied by the bioavailability 0.034 of ref 32, read-out: estimated volume of distribution (Vd = 6733.0 x 0.034)), the Vd was 229 L. The same molecule gave a half-life in series [1] (setting [5]) of approximately 240 min. The Cmax in series [1] (setting [6]) came to 735 ng/mL. In series [1] (setting [7]), the AUC(0-inf) turned out to be 1460 ± 547 ng·h/mL, the AUC(0-t) came out at 1340 ± 515 ng·h/mL and the Tmax turned out to be 0.93 ± 0.57 h. In addition, the Vd/F in series [1] (both sexes, human plasma, oral, 60 mL guaco syrup spiked with 1500 mg coumarin, n = 5, mean ± S.D., read-out: Vd/f (apparent volume of distribution)) is 6730 ± 3280 L. Moreover, in series [1] (setting [8]), the “Cl/f (apparent clearance)” value was 1148.0 L/h and 1148.0 ± 411.0 L/h; the Cmax amounted to 735.46 ± 252.29 ng/mL; the “r areas (AUC0-t/AUC0-inf)” value is 0.92 ± 0.03. In addition, the bioavailability – broadly, the share of a dose that reaches the circulation, judged against a reference dose that is usually intravenous – in series [3] is reported as 3.4%.

With `O=c1ccc2ccc(O)cc2o1` [7-HCOU, 7-hydroxycoumarin], in series [4], the “attenuation of allergic airway inflammation” value is given as “significant attenuation”. For the same molecule, the half-life in series [1] (setting [5]) is approximately 60 min. In series [1] (setting [6]), the highest concentration (Cmax) was found to be 85 ± 40.1 ng/mL. Further, in series [1] (setting [7]), the AUC(0-inf) came to 134 ± 58 ng·h/mL, the AUC(0-t) came out at 126 ± 54 ng·h/mL and the Tmax was determined as 1.4 ± 0.68 h. Further, in series [1] (setting [8]), the Kel (elimination rate constant) was determined as 0.91 ± 0.59 h⁻¹, the T1/2 is listed as 1.16 ± 0.82 ^a h and the “r areas (AUC0-t/AUC0-inf)” value was determined as 0.95 ± 0.05.
